Data taken from patent publication US10226509B2, “Lymphangiogenesis inhibitors for cancer and for graft survival” (TUFTS UNIVERSITY, priority 2014, dated 2019).
Entries after “also recorded” stand apart in the source; their conditions may differ.

Tests used:
[1] = tested on: VEGF-C-induced LEC sprouting; assay: LEC sprouting assay: VEGF-C-induced sprouting; format: cell-based, human
Procedure: (§1) LEC spheroids were generated by seeding primary LECs at passage 4 or 5 in each well of 384-well hanging-drop plates (3D Biomatrix) in complete EGM-2 MV medium containing 0.25% methyl cellulose according to the manufacturer's instructions (750 cells/well). After 18 hours, LEC spheroids were collected, resuspended in serum-free EBM-2 basal medium, and mixed with collagen solution (PureCol collagen, Advanced BioMatrix, 2.2 mg/ml in M199 medium, pH adjusted to 7.4 with NaHCO3 and NaOH). Aliquots of the LEC spheroid/collagen mixture (250 μl/well of 48-well plate) were incubated in the presence or absence of various test agents for 24 hr. At the end of the incubation period, spheroids were stained with Calcein AM (Invitrogen, 1 μg/mL, 37° C., and 30 min). Fluorescent images were acquired using the EVOS FL cell imaging system, pixels were inverted for better visualization and cumulative length of each sprout was calculated. Results were expressed as fold change compared to corresponding controls. It was observed that sprout lengths vary from passages to passages. Test agents used included thiodigalactoside (10 to 50 mM, Carbosynth), 3′-sialyl lactose (2 to 10 mM, Carbosynth), 6′-sialyl lactose (2 to 10 mM, Carbosynth), LY294002 (20 μM, Abeam), U0126 (20 μM, Abeam), PD0325901 (1 μM, Selleckchem), human VEGFR-3-Fc chimera (10 μg/ml, R&D), human VEGFR-2-Fc chimera (10 μg/ml, R&D), Avastin (10 μg/ml, bevacizumab, Genentech/Roche), human control IgG (10 μg/ml, Southern Biotech), anti-human podoplanin functional grade antibody (10 μg/ml, eBioscience), and rat IgG2a κ isotype control functional grade antibody (10 μg/ml, eBioscience).
In this assay, the LEC spheroids were treated with VEGF-C (50 ng/ml) in the presence or absence of 0.75 μM of Gal-8 for 24 hours, and then accumulated sprout lengths were quantified. […] Synergistic effect of Gal-8 on VEGF-C-induced LEC sprouting was dose-dependent. […] At concentrations >0.5 μM Gal-8, there was no further increase in the degree of VEGF-C-induced lymphangiogenesis (FIG. 4C).
To further characterize the role of carbohydrate-mediated recognition in VEGF-C-induced lymphangiogenesis, LEC spheroids were stimulated with VEGF-C (50 ng/ml) in the presence or absence of three different galectin inhibitors. […] Therefore, the data establishes the critical role of Gal-8-mediated carbohydrate-mediated recognition in VEGF-C-induced lymphangiogenesis.

[2] = tested on: LEC spheroids; assay: LEC sprouting assay: stimulation by galectins alone; format: cell-based, human
Procedure: as §1
To assess the effect of galectins on LEC sprouting, LEC spheroids were embedded in a collagen matrix and incubated with media containing various test agents. After 24 hours, the cumulative length of the sprouts for each spheroid was quantified by ImageJ. […] Multiple approaches were used to determine whether the stimulatory effect of Gal-8 on LEC sprouting was carbohydrate-dependent.

[3] = tested on: VEGFR-3; assay: Affinity precipitation assay, VEGFR-3; format: binding, human; settings: galectin-conjugated agarose beads, LEC lysates
Procedure: (§2) Five mg of plant lectins (Vector Labs) and galectins were conjugated to 330 mg of Pierce® NHS-activated agarose dry resin in accordance with the manufacturer's instructions (Thermo Scientific). Primary LECs (Lonza) were lysed in Triton lysis buffer (20 mM Tris-HCl, pH 7.4; 150 mM NaCl; 0.5% Triton X-100 with protease inhibitor cocktail). LEC lysates (250 μg in 500 μL lysis buffer supplemented with 10 mM MgCl2) were incubated with 40 μL (50% slurry) of agarose-conjugated lectins (4° C., overnight). Beads were pelleted by centrifugation at 3000 rpm for 1 min. Non-specific binding proteins were removed by washing the beads with Triton lysis buffer once and PBS twice. Supernatants were discarded; bound proteins were eluted by boiling the beads with 20 μL of 2× Laemmli sample buffer for 7 min, and examined by western blotting.
Next, a series of examples were performed to determine whether VEGF-C-induced lymphangiogenesis is dependent on Gal-8. To determine whether VEGFR-3 is a Gal-8-binding protein, LEC lysates were incubated with Gal-8-conjugated agarose beads in the presence or absence of 0.1 M of lactose (an inhibiting sugar) or sucrose (a non-inhibiting sugar). Bound proteins were examined and were compared to total cell lysates (input) by western blot using anti-VEGFR-3 antibody. Three forms of VEGFR-3 (125 kDa, 175 kDa and 195 kDa) were detected in total cell lysates (FIG. 5A) (Bando, H., et al. 2004. Int J Cancer 111:184-191.). […] Having shown that Gal-8 binds to VEGFR-3 in LECs and that the carbohydrate-binding activity of Gal-8 is required for the synergistic effect of Gal-8 on VEGF-C-induced LEC sprouting, it was of interest to determine whether VEGFR-3 bears 3′-sialylated glycans.

[4] = target: T1, PDPN (Homo sapiens, UniProt Q86YL7); assay: Affinity precipitation assay, PDPN; format: binding; settings: galectin-conjugated agarose beads, LEC lysates
T1 construct: Within the whole cell lysate, an anti-PDPN-reactive 43-kDa component was detected; host or cells: primary lymphatic endothelial cells (LECs)
T1 sequence (Q86YL7 23-162): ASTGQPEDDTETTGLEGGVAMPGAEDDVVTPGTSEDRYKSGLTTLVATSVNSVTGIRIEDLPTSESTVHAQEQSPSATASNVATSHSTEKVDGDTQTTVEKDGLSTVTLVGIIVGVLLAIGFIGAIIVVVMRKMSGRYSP
Procedure: as §2
To determine whether PDPN binds to Gal-8 in a carbohydrate-dependent manner, LEC lysates were incubated with Gal-8-conjugated to agarose beads in the presence or absence of 0.1 M of lactose (an inhibiting sugar) or sucrose (a non-inhibiting sugar). Bound proteins were examined with total cell lysates (input) by western blot using an anti-PDPN antibody. To determine specificity of PDPN binding to Gal-8, LEC lysates were also incubated with agarose beads conjugated to Gal-1, Gal-3 and Gal-7. Within the whole cell lysate, an anti-PDPN-reactive 43-kDa component was detected (FIG. 7A).

“Gal-8: recombinant galectin-8, tandem-repeat type galectin with two different CRDs” was tested, and the “VEGF-C-induced LEC sprouting, times higher than VEGF-C alone or Gal-8 alone” value ([1]; VEGF-C 50 ng/ml plus 0.75 μM of Gal-8) was 5 times, the “effect on VEGF-C-induced LEC sprouting (in words)” value ([1]; VEGF-C 50 ng/ml, 24 h) was “markedly enhanced” and the “promotion of LEC sprouting by the agent alone (in words)” value ([2]; 24 hours) was “concentration-dependent and was comparable to that of VEGF-C; also recorded: promotes LEC sprouting”. The “Hill's coefficient (nH) of galectin-8-mediated LEC sprouting” value ([2]; dose-response curve) was 3.7, the EC50 ([2]; sprouting activity at 0.75 μM set at 100%, read-out: EC50 of galectin-8-mediated LEC sprouting) was 520 nM and the “binding to VEGFR-3 (in words)” value [3] was “interacted with 125 and 195 kDa VEGFR-3 and not with 175 kDa VEGFR-3”. For the same substance, the “binding of PDPN (in words)” value [4] was “binds”.
